Assay results: ChEMBL document CHEMBL1132749, “Synthesis and antiproliferative evaluation of 7-aminosubstituted pyrroloiminoquinone derivatives” (Bioorg Med Chem Lett, 2000)

Legend:
L1210 [1] = experiment: The compound was evaluated in vitro for its antiproliferative activity against the murine L1210 leukemia cell; format: functional, cell-based; conditions: Mus musculus
L1210 [2] = experiment: Effect of compound on cellular cycle of L1210 leukemia cell; non specific; format: functional, cell-based; conditions: Mus musculus

| IC50 (L1210 [1]) [µM] | Structure (SMILES) | Effect (L1210 [2]) |
| --- | --- | --- |
| 0.3 | CN(C)CCNC1=CC2=NCCc3c[nH]c(c32)C1=O | non specific |
| 0.25 | NC1=CC2=NCCc3c[nH]c(c32)C1=O [MAKALUVAMINE I] | non specific |
| 5.3 | O=C1C(NCCc2c[nH]c3ccccc23)=CC2=NCCc3c[nH]c1c32 | non specific |
| 0.38 | O=C1C(NCCN2CCCC2)=CC2=NCCc3c[nH]c1c32 | non specific |
| 2.1 | O=C1C(NCCc2ccc(O)cc2)=CC2=NCCc3c[nH]c1c32 | non specific |
